Source: article PMC8113459, “Selective inhibition of cullin 3 neddylation through covalent targeting DCN1 protects mice from acetaminophen-induced liver toxicity” (Nature Communications, 2021)
Values joined by “and” are separate entries in the source; they are usually repeats but may differ in a detail not shown here. Identical values can stand only once. Like-named read-outs stand apart in the source and are kept apart here.

What was measured:
DCN1 [1] = molecular target: T1, DCN1 (Homo sapiens, UniProt Q96GG9); assay: Competitive FP binding assay
T1 sequence (Q96GG9 whole entry): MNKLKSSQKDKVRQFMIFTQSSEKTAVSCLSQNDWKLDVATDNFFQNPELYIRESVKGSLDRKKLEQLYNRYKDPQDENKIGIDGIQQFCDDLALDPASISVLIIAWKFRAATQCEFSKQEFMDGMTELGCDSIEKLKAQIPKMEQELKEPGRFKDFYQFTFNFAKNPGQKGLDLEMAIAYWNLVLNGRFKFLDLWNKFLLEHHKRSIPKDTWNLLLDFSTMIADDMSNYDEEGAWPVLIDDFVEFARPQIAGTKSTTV
Description: Competitive FP binding assay was performed as previously described. The IC50 and Ki values of DI-1548 and DI-1548DD were determined in competitive binding experiments. Mixtures of preincubated protein/probe complex solution in the assay buffer (196 μL) and compounds in DMSO (4 μL) were added into assay plates which were incubated at room temperature for 30 min with gentle shaking. The concentrations of DCN1 protein and fluorescent probe were 50 and 5 nM, respectively. […] FP values in millipolarization units were measured using the Infinite M-1000 plate reader (Tecan U.S., Research Triangle Park, NC) in Microfluor 1 96-well, black, round-bottom plates (Thermo Fisher Scientific, Waltham, MA) at an excitation wavelength of 485 nm and an emission wavelength of 530 nm. IC50 values were determined by nonlinear regression fitting of the competition curves using the dose–response inhibition equation (four parameters, variable slopes) included in the Prism/GraphPad software. Ki values were calculated using methods described previously.

KYSE70 cells = assay: Cell viability assay (WST-8), KYSE70; format: cell-based, human; settings: for cell viability relative to control: replicates
Description: (§1) Cell viability assay was performed as previously described. The effect of DCN1 inhibitors on cell growth was evaluated by a WST-8 [2-(2-methoxy-4-nitrophenyl)-3-(4-nitrophenyl)-5-(2,4-disulfophenyl)-2H-tetrazolium, monosodium salt assay (Dojindo Molecular Technologies, Inc). Cells (2000–3000 cells in each well) were seeded in 96-well tissue culture plates in medium (100 μL) and treated with serial dilution of DCN1 inhibitors for 3 days. At the end of incubation, WST-8 dye (20 μL) was added to each well and incubated for 1–3 h, then the absorbance was measured in a microplate reader (Molecular Devices) at 450 nm. Cell growth inhibition was evaluated as the ratio of the absorbance of the sample to that of the control. The values were inserted into Prism software, and the curves and the EC50 values were produced by Prism software.

[2] = Cell viability assay (WST-8), KYSE70; format: cell-based, human; settings: human, KYSE70 cells, replicates, read-out: cell viability relative to control
Description: as §1

DCN1 [3] = molecular target: T1, DCN1; assay: BLI assay; format: binding; parameters: biotin (chemical labelling, EZ-Link long-chain reagent)
Description: BLI experiments were performed using an OctetRED96 instrument from PALL/ForteBio, as previously described. All assays were run at 30 °C using PBS (pH 7.4) as the assay buffer, in which 0.1% BSA, 0.01% Tween-20, and 2% DMSO were added. DCN1 protein was biotinylated using the Thermo EZ-Link long-chain biotinylation reagent. Biotinylated DCN1 protein was tethered on super streptavidin biosensors (ForteBio) by dipping sensors into 10 µg/mL protein solutions. To eliminate loose nonspecific bound protein and establish a stable base line, sensors with proteins were moved and dipped into wells with pure assay buffer and equilibrated in the buffer for 10 min. Association–dissociation cycles were performed by moving and dipping sensors into compound solution wells then into pure buffer wells. DMSO-only reference was included in all assays.

DCN1 [4] = molecular target: T1, DCN1; assay: Intact-protein mass spectrometric analysis, Method B (DCN1); format: binding; settings: 1 h incubation, 100 nM protein
Description: Method B: Recombinant DCN1 or DCN3 protein (100 nM in 25 mM Tris 7.5, 200 mM NaCl, 1 mM DTT buffer) was incubated with 1.2-fold excess of the DCN1 inhibitors at 37 °C for 10 min, 1 h, or 3 h. Following incubation, the protein was analyzed by LC–MS (Agilent Q-TOF 6545) under the following conditions: fragmentor voltage, 300 V; skimmer voltage, 75 V; nozzle voltage, 100 V; sheath gas temperature, 350 °C; and drying gas temperature, 325 °C. MassHunter Qualitative Analysis software (Agilent) was used to analyze the data. Intact protein masses were obtained using the maximum entropy deconvolution algorithm. The mass spectrometry data in Supplementary Figs. 14–17 were generated by Method B.

HO-1 protein = assay: Western blot, HO-1 protein in THLE2 cells; format: cell-based, human; settings: THLE2, Fig. 6b
Description: Western blotting was performed as described previously. Treated cells were lysed by RIPA buffer supplemented with protease inhibitor. The expression level of indicated proteins was examined by immunoblotting analysis and GAPDH was used as the loading control. Antibodies were purchased commercially: cullin 1 (sc-17775, 1:500 dilution) and cullin 2 (sc-166506, 1:500 dilution) from Santa Cruz Biotech (Santa Cruz, CA); cullin 4A (PA5-14542, 1:1000 dilution), cullin 4B (PA5-50647, 1:1000 dilution), and DCN3 (DCUN1D3, PA5-44000, 1:1000 dilution) from Thermo Fisher Scientific (Wayne, MI); cullin 3 (2759, 1:1000), NRF2 (12721, 1:1000 dilution), HO-1 (70081, 1:1000 dilution), and Bim (2819, 1:1000 dilution) from Cell Signaling Technology (Boston, MA); DCN1 (GWB-E3D700, 1:1000 dilution) from GenWay Biotech (San Diego, CA); and cullin 5 (A302-173A, 1:500 dilution) from Bethyl Labs (Montgomery, TX). Results are representative of two independent experiments.

Compound: C=C(CN1CCOCC1)C(=O)NC[C@@H](NC(=O)[C@H](Cc1nc2ccc(C(C)C)cc2s1)NC(=O)CC)C1CCCCC1 [DI-1548]
- FP signal of the competitive binding curve (DCN1 [1]; Concentration (nM) 0.016935, duplicates): 44.2 and 44.7
- FP signal of the competitive binding curve (DCN1 [1]; Concentration (nM) 0.050805, duplicates): 43.5 and 45.8
- FP signal of the competitive binding curve (DCN1 [1]; Concentration (nM) 0.152416, duplicates): 44.1 and 44.8
- FP signal of the competitive binding curve (DCN1 [1]; Concentration (nM) 0.457247, duplicates): 43.8 and 44
- FP signal of the competitive binding curve (DCN1 [1]; Concentration (nM) 1.37174, duplicates): 41.3
- FP signal of the competitive binding curve (DCN1 [1]; Concentration (nM) 4.11523, duplicates): 32.5 and 31.9
- FP signal of the competitive binding curve (DCN1 [1]; Concentration (nM) 12.3457, duplicates): 17.8 and 17.9
- FP signal of the competitive binding curve (DCN1 [1]; Concentration (nM) 37.037, duplicates): 15.7 and 15.4
- FP signal of the competitive binding curve (DCN1 [1]; Concentration (nM) 111.111, duplicates): 14.3 and 14.5
- FP signal of the competitive binding curve (DCN1 [1]; Concentration (nM) 333.333, duplicates): 15.3 and 15.7
- FP signal of the competitive binding curve (DCN1 [1]; Concentration (nM) 1000, duplicates): 16.2 and 15.8
- IC50 (DCN1 [1]; DCN1 50 nM, probe 5 nM, 30 min): 4.6 nM
- Ki (DCN1 [1]; DCN1 50 nM, probe 5 nM, 30 min): < 1 nM
- EC50 (KYSE70 cells; Homo sapiens, KYSE-70, 72 h, cell line assigned from panel order, read-out: EC50, cell growth inhibition): > 1000 nM
- cell viability relative to control (KYSE70 cells; conc 10, 72 h): 103.349 and 104.463
- cell viability relative to control (KYSE70 cells; conc 30, 72 h): 98.066 and 96.6942
- cell viability relative to control (KYSE70 cells; conc 100, 72 h): 94.5283 and 108.512
- cell viability relative to control (KYSE70 cells; conc 300, 72 h): 88.5377 and 82.0661
- cell viability relative to control (KYSE70 cells; conc 1000, 72 h): 64.6226 and 79.9057 and 54.5868
- viability at 72 h ([2]; conc 10, 72 h): 99.4%
- viability at 72 h ([2]; conc 30, 72 h): 104%
- viability at 72 h ([2]; conc 100, 72 h): 99.4%
- viability at 72 h ([2]; conc 300, 72 h): 94.1%
- dissociation phase of the complex with DCN1 (DCN1 [3]): no dissociation phase
- concentration at which the BLI signal reaches near its maximum (DCN1 [3]; 1.56 to 100 nM tested): 25 nM
- covalent complex formation with DCN1 (DCN1 [4]): rapid and complete formation

Compound: C=C(CN(C)C)C(=O)NC[C@@H](NC(=O)[C@H](Cc1nc2ccc(C(C)C)cc2s1)NC(=O)CC)C1CCCCC1 [DI-1859]
- HO-1 protein level (HO-1 protein): dose dependently upregulates
